“Also recorded” adds a separate entry of the source.
Experiments:
glioblastoma = test: Tumor lysis by CAR neutrophils with inhibitors; format: cell-based; conditions: for glioblastoma viability: co-incubation with CAR neutrophils
TGFβ = test: hPSC differentiation: endothelial-to-hematopoietic transition; format: cell-based, human; conditions: 10 μM from day 4
Protocol: H9 was obtained from WiCell and maintained on Matrigel- or iMatrix 511-coated plates in mTeSR plus medium according to a previously published method. For differentiation, hPSCs were dissociated with 1 mM EDTA and seeded onto iMatrix 511-coated, 24-well plates at a cell density between 10,000 and 80,000 cells/cm^2 in mTeSR plus medium with 5 μM Y27632 for 24 hours (day −1). At day 0, cells were treated with 6 μM CHIR99021 (CHIR) in DMEM medium supplemented with 100 μg/mL ascorbic acid (DMEM/Vc), followed by a medium change with LasR basal medium at day 1, day 2, and day 3 and the addition of 50 ng/ml VEGF to the medium from day 2 to day 4. At day 4, medium was replaced by Stemline II medium (Sigma) supplemented with 10 μM SB431542. After 2 days, SB431542-containing medium was aspirated, and cells were maintained in Stemline II medium with 50 ng/mL SCF and FLT3L. At day 9 and day 12, the medium was aspirated and changed to Stemline II medium containing 50 ng/mL SCF and FLT3L and 25 ng/mL GM-CSF. At day 15, floating cells were gently harvested and used for terminal neutrophil differentiation. The floating cells were cultured in Stemline II medium supplemented with GlutaMAX 100X, ExCyte (0.2%), human G-CSF (150 ng/mL), and Am580 retinoic acid agonist (2.5 μM). After three days, the same medium with all components and cytokines was added to the top of the existing culture. […]

tumor cells = test: Phagocytosis of tumor cells by neutrophils with inhibitor; format: cell-based; conditions: 5 μM
U87MG cells = test: Neutrophil infiltration of 3D tumor spheroids; format: cell-based, human; conditions: pre-treating neutrophils
Protocol: A 3-D biomimetic GBM model was constructed to mimic an in vivo tumor niche-like microenvironment with a dense, extracellular matrix and heterogeneous tumor cell subtypes.
Neutrophil infiltration of 3D tumor spheroids. The 3D tumor spheroids were obtained using the hanging drop method. Briefly, U87MG cells were suspended in MEM medium with 10% FBS and 0.3% methylcellulose at 2×10^6 cells/mL and deposited onto an inverted lid of 96-well plate as an individual drop using a 20 μL pipettor. The cover lid was then placed back onto the PBS-filled bottom chamber and incubated at 37° C. and 5% CO2. The hanging drops were monitored daily until cell aggregates were formed in ˜5-7 days. Each cell aggregate was transferred to a single well of a 24-well plate for the substream analysis. To assess the tumor penetration capability of CLTX T-CAR neutrophils, 2×10^5 neutrophils/well were added to the wells of 24-well plate and incubated with the tumor spheroids. After co-incubation for 24 hours, the tumor spheroids were fixed and stained for CD45 and DAPI. For the cytotoxicity analysis, the mixture of neutrophils and tumor spheroids were stained with 1 μM Calcein-AM and 1 μM propidium iodide (PI). The stained cells were then imaged using a Leica DMi-8 fluorescent microscope.

[1] = system: neutrophil extracellular trap (NET) formation; conditions: 3 μg/ml or more
invertebrates = conditions: cited from earlier work
mammals = conditions: cited from earlier work
[2] = system: glioblastomas and other tumors; conditions: cited from earlier work
[3] = system: day 15 myeloid progenitors; test: Myeloid progenitor monocyte/macrophage potential by flow cytometry; format: cell-based, human; conditions: compared to GM-CSF
Protocol: (§1) Differentiated cells were gently pipetted and filtered through a 70 or 100 μm strainer sitting on a 50 mL tube. The cells were then pelleted by centrifugation and washed three times with PBS−/− solution containing 1% BSA. The cells were stained with appropriately conjugated antibodies for 25 min at room temperature in the dark and analyzed in an Accuri C6 plus cytometer (Beckton Dickinson) after washing with BSA-containing PBS−/− solution. Flow Jo software was used to process the collected flow data.
as §1, with “Flow cytometry analysis. Differentiated” for “Differentiated”, “twice” for “three times”, “bovine serum albumin (BSA).” for “BSA.”, “appropriate” for “appropriately”, “dark,” for “the dark”, “FlowJo” for “Flow Jo”

Molecule: CC(=O)N[C@@H](CS)C(=O)O [N-acetylcysteine]
- tumor lysis by CAR neutrophils (glioblastoma): significantly blocked
- glioblastoma viability (glioblastoma): higher viability

Molecule: NC(=O)c1ccc(-c2nc(-c3ccc4c(c3)OCO4)c(-c3ccccn3)[nH]2)cc1 [SB431542]
- endothelial-to-hematopoietic transition (generation of CD45+CD43+ HSPCs) (TGFβ): promoted endothelial-to-hematopoietic transition; also recorded: promoted EHT process

Molecule: C=C1[C@@H](C)[C@H]2[C@H](Cc3ccccc3)NC(=O)[C@]23[C@H](OC(C)=O)/C=C/[C@@](C)(O)C(=O)[C@@H](C)C/C=C/[C@H]3[C@@H]1O [cytochalasin D]
- phagocytosis of tumor cells by neutrophils (tumor cells): significantly reduced
- tumor lysis by CAR neutrophils (glioblastoma): significantly blocked
- glioblastoma viability (glioblastoma): higher viability
- effect on tumor cytotoxicity of CAR-neutrophils (U87MG cells): significantly reduced
- effect on tumor-infiltrating activity of CAR-neutrophils (U87MG cells): significantly reduced

Molecule: CC(C)c1cccc(C(C)C)c1O [propofol]
- tumor lysis by CAR neutrophils (glioblastoma): significantly blocked
- NET formation in neutrophils [1]: significant decrease

Molecule: chlorotoxin [CLTX]
- toxicity to invertebrates (invertebrates): highly toxic
- toxicity to mammals (mammals): nontoxic
- tumor binding [2]: binds selectively

B1: soluble MMP2: soluble matrix metallopeptidase 2 used to pre-treat neutrophils (protein, UniProt P08253 110-660, looked up)
72 kDa type IV collagenase: YNFFPRKPKWDKNQITYRIIGYTPDLDPETVDDAFARAFQVWSDVTPLRFSRIHDGEADIMINFGRWEHGDGYPFDGKDGLLAHAFAPGTGVGGDSHFDDDELWTLGEGQVVRVKYGNADGEYCKFPFLFNGKEYNSCTDTGRSDGFLWCSTTYNFEKDGKYGFCPHEALFTMGGNAEGQPCKFPFRFQGTSYDSCTTEGRTDGYRWCGTTEDYDRDKKYGFCPETAMSTVGGNSEGAPCVFPFTFLGNKYESCTSAGRSDGKMWCATTANYDDDRKWGFCPDQGYSLFLVAAHEFGHAMGLEHSQDPGALMAPIYTYTKNFRLSQDDIKGIQELYGASPDIDLGTGPTPTLGPVTPEICKQDIVFDGIAQIRGEIFFFKDRFIWRTVTPRDKPMGPLLVATFWPELPEKIDAVYEAPQEEKAVFFAGNEYWIYSASTLERGYPKPLTSLGLPPDVQRVDAAFNWSKNKKTYIFAGDKFWRYNEVKKKMDPGFPKLIADAWNAIPDNLDAVVDLQGGGHSYFFKGAYYLKLENQSLKSVKFGSIKSDWLGC
- effect on tumor cytotoxicity of CAR-neutrophils (U87MG cells): significantly reduced
- effect on tumor-infiltrating activity of CAR-neutrophils (U87MG cells): significantly reduced

B2: G-CSF: recombinant human granulocyte colony-stimulating factor (protein, UniProt P09919 31-207, looked up)
Granulocyte …: TPLGPASSLPQSFLLKCLEQVRKIQGDGAALQEKLVSECATYKLCHPEELVLLGHSLGIPWAPLSSCPSQALQLAGCLSQLHSGLFLYQGLLQALEGISPELGPTLDTLQLDVADFATTIWQQMEELGMAPALQPTQGAMPAFASAFQRRAGGVLVASHLQSFLEVSYRVLRHLAQP
- number of CD14+ monocytes/macrophages [3]: significantly decreased

— patent US20240277841A2, “HUMAN CHIMERIC ANTIGEN RECEPTOR NEUTROPHILS, COMPOSITIONS, KITS AND METHODS OF USE” (Purdue Research Foundation, priority 2020, published 2024)
